The values that follow come from patent US20090326032A1, “PHARMACEUTICAL COMPOSITIONS COMPRISING NK1 RECEPTOR ANTAGONISTS AND SODIUM CHANNEL BLOCKERS” (GLAXO GROUP LIMITED, priority 2007, published 2009).

A short description of series [1]: blood and brain drug concentrations in satellite animals. It counts as in vivo, rat. The settings on record: for concentration at 60 min: CD, rat, intraperitoneal.
The subject of series [2] is tonic hindlimb extensor seizures. Kind of series: threshold for tonic hindlimb extensor seizures, corneal electroshock, 'up and down' method (CC50). It is filed as in vivo, rat. The settings on record: ENa7 3 mg/kg s.c. alone, male CD rats. As to the method: This work was conducted in compliance with the Home Office Guidance on the operation of the Animals (Scientific Procedures) Act 1986 and GlaxoSmithKline ethical standards. Male CD rats (100-145 g) were supplied by Charles River, UK. Animals were group housed (6 animal per cage) with free access to food (Standard rodent chow; Harlan, UK) and water under a 12 h light/dark cycle (lights on at 0700 h). A period of at least one week between arrival at GSK and the study was allowed in all cases.
Animals were administered a test compound at the appropriate dose, route and pre-treatment time and returned to their home cage. Testing occurred in a separate room from that used for housing. […] Seizure threshold was determined using the ‘up and down’ method of Kimball et al. (1957)(Kimball A W, Burnett W T Jr, Doherty D G. (1957) Radiat Res. 7(1):1-12). […]
All doses were calculated as base. […]
Induction of seizure is measured as an all-or-nothing effect scored as either present (+) or absent (0) for each animal. […] Drug effects were calculated as the % change in CC50. Significant differences between drug-treated animals and appropriate vehicle treated groups were assessed according to the methods of Litchfield and Wilcoxon (1949). […]

SMILES strings stand for the structures. Counter-ions that a name gives are not always drawn. Like-named read-outs stand apart in the source and are kept apart here.

As to `COc1ccc(-n2nnnc2C(F)(F)F)cc1CN[C@H]1CCCN[C@H]1c1ccccc1` [ENK6, [2-Methoxy-5-(5-trifluoromethyl-tetrazol-1-yl)-benzyl]-([2S,3S]-2-phenyl-piperidin-3-yl)-amine dihydrochloride], the concentration at 60 min in series [1] (blood, 30 mg/kg, ENK6 30 mg/kg, ENa7 veh, n = 1, read-out: Blood ENK6) was 558 ng/mL; in series [1] (blood, ENK6 30 mg/kg + ENa7 1 mg/kg, n = 2, read-out: Blood ENK6), 456 ng/mL; in series [1] (blood, ENK6 30 mg/kg + ENa7 3 mg/kg, n = 2, read-out: Blood ENK6), 1210 ng/mL; in series [1] (brain, 30 mg/kg, ENK6 30 mg/kg, ENa7 veh, n = 1, read-out: Brain ENK6), 1260 ng/g; in series [1] (brain, ENK6 30 mg/kg + ENa7 1 mg/kg, n = 2, read-out: Brain ENK6), 1040 ng/g; in series [1] (brain, ENK6 30 mg/kg + ENa7 3 mg/kg, n = 2, read-out: Brain ENK6) it was 4800 ng/g.

Regarding `CN1CC[C@]2(CC[C@H](c3ccc(OCc4ccccc4F)cc3)N2)C1=O.Cl` [ENa7, (2R,5R)-2-(4-{[(2-Fluorophenyl)methyl]oxy}phenyl)-7-methyl-1,7-diazaspiro[4.4]nonan-6-one hydrochloride], in series [2], the seizure threshold result was “robust and significant increase”. The “concentration of ENa7 in the presence of the NK1 antagonist” value in series [1] (blood and brain, with vs without ENK6 30 mg/kg) is given as “No increase”.
